For 35 molecules, LC retention time results are on record in the RepoRT retention time repository (doi:10.1007/s00216-013-6954-6).

Series [1] is described as follows: RP, Waters ACQUITY UPLC HSS T3, 150 × 2.1 mm, 1.8 µm; A: water + 0.1% formic acid; B: acetonitrile + 0.1% formic acid; gradient (min/%B) 0/5 1/5 16/95 18/95. As to conditions: stereoisomer not certain.
The nature of series [2]: RP, Waters ACQUITY UPLC HSS T3, 100 × 1 mm, 1.8 µm; A: water + 0.1% formic acid, pH 3; B: acetonitrile + 0.1% formic acid, pH 3; gradient (min/%B) 0/5 1/5 16/95 18/95 20/5. The settings on record: stereoisomer not certain.

Turning to `COC1C(O)C(CO)OC1n1cnc2c(N)ncnc21` (configuration not stated), the LC retention time in series [1] and in series [2] was 1.1 min throughout.
As for `Nc1ncnc2c1ncn2C1CC(O)C(CO)O1` (configuration not stated), the LC retention time in series [1] and in series [2] was 0.8 min in each case.
In the case of `NC(N)=NCCCC(N)C(=O)O` (configuration not stated) [Arginine], the LC retention time in series [2] came out at 0.413 min.
On the same count and under the same terms, in the case of `CC(CCC(=O)NCC(=O)O)C1CCC2C3C(O)CC4CC(O)CCC4(C)C3CC(O)C12C` (configuration not stated) [Glycocholic acid] it was 7.92 min; in that of `Cn1cnc(C[C@H](N)C(=O)O)c1` [1-Methyl-L-Histidine], 0.407 min.
On the same count and under the same terms, for `O=C(O)CNC(=O)c1ccccc1` [Hippuric acid] the value was 3.39 min.
Same read-out and setting: in the case of `CC(CCC(=O)O)C1CCC2C3C(O)CC4CC(O)CCC4(C)C3CC(O)C12C` (configuration not stated) [Cholic acid] it was 8.94 min.
For the molecule `NCC(=O)NC(Cc1ccccc1)C(=O)O` (stereo not drawn) [H-Gly-Phe-OH], the LC retention time in series [2] came to 2.3 min.
The same measure, in the same setting: in the case of `NCCS(=O)(=O)O` [Taurine] it was 0.446 min; in that of `CCC(C)C(N)C(=O)NC(C(=O)O)C(C)CC` (stereo not drawn) [H-Ile-Ile-OH], 3.1 min.
The same measure, in the same setting: for `CC(C)CC(NC(=O)C(N)Cc1ccccc1)C(=O)O` (stereo not drawn) [H-Phe-Leu-OH] the value was 4.1 min; for `CC(C)CC(N)C(=O)NC(CC(C)C)C(=O)O` (stereo not drawn) [H-Leu-Leu-OH], 3.6 min; for `CC(C)CC(NC(=O)C(N)Cc1ccc(O)cc1)C(=O)O` (stereo not drawn) [H-Tyr-Leu-OH], 3.2 min.
As to `CC(C)C(NC(=O)C(N)Cc1ccccc1)C(=O)O` (stereo not drawn) [H-Phe-Val-OH], in series [2], the LC retention time stood at 3 min.
For `Cc1cn(C2CC(O)C(CO)O2)c(=O)[nH]c1=O` (configuration not stated) [Thymidine], in series [2], the LC retention time worked out at 1.6 min.
On the same count and under the same terms, for `CC12CCC(=O)C=C1CCC1C2C(=O)CC2(C)C1CCC2(O)C(=O)CO` (configuration not stated) [Cortisone] the value was 6.61 min; for `COc1cc2ccc(=O)oc2cc1O` [Scopoletin], 4.5 min; for `CCCCCCCCCCCCCCCC(=O)OCC(O)COP(=O)([O-])OCC[N+](C)(C)C` (configuration not stated) [lysoPC(16:0/0:0)], 11.6 min.
The same measure, in the same setting: for `CS(=O)CCCCCCCCN=C=S` (stereo not drawn) [8-MeSO-Octyl-NCS] the value was 8.1 min; for `COc1cccc2[nH]cc(CN)c12` [4-MeO-I3CH2NH2], 3.2 min.
On the same count and under the same terms, in the case of `CC(C)CC(NC(=O)C(N)C(C)C)C(=O)O` (stereo not drawn) [H-Val-Leu-OH] it was 2.7 min; in that of `CC(C)CC(N)C(=O)NC(Cc1ccccc1)C(=O)O` (configuration not stated) [H-Leu-Phe -OH], 4.2 min.
For `Nc1ccc(C(=O)O)cc1` [paba], the LC retention time in series [2] came to 1.95 min.
Take `NCc1c[nH]c2ccccc12` [Indol-3-ylmethylamine (I3CH2NH2)]: the LC retention time in series [2] stood at 1.8 min.
Same read-out and setting: in the case of `COc1cc(CC2COC(c3ccc(O)c(OC)c3)C2CO)ccc1O` (configuration not stated) [Lariciresinol] it was 5.6 min; in that of `CCC(C)C(N)C(=O)NC(Cc1ccccc1)C(=O)O` (stereo not drawn) [H-Ile-Phe-OH], 3.9 min; in that of `NC(Cc1ccccc1)C(=O)NCC(=O)O` (stereo not drawn) [H-Phe-Gly-OH], 1.7 min.
Consider `Cc1cc2nc3c(=O)[nH]c(=O)nc-3n(CC(O)C(O)C(O)CO)c2cc1C` (configuration not stated) [Riboflavin], for which the LC retention time in series [2] amounted to 3.92 min.
Same read-out and setting: for `CC(CCC(=O)O)C1CCC2C3CCC4CC(O)CCC4(C)C3CC(O)C12C` (configuration not stated) [Deoxycholic acid] the value was 10.7 min.
For the molecule `CSCCCCCCCCC(N)C(=O)O` (configuration not stated) [Hexahomo-Met], the LC retention time in series [2] stood at 5.4 min.
Still for that read-out and setting: for `O=c1[nH]c(=O)c2[nH]c(=O)[nH]c2[nH]1` [Uric acid] the value was 0.643 min; for `O=C1CCC(C(=O)O)N1` (configuration not stated) [Pyroglutamic acid], 0.687 min; for `O=C(O)Cc1ccccc1` [Phenylacetic acid], 3.6 min.
In the case of `O=C(O)C1CCCN1` (configuration not stated) [Proline], the LC retention time in series [2] was 0.482 min.
Still for that read-out and setting: for `CC(C)CC(N)C(=O)NC(Cc1ccc(O)cc1)C(=O)O` (stereo not drawn) [H-Leu-Tyr-OH] the value was 2.8 min.
